Tests used:
Type in all cases: binding
[1] = target: T1, T-complex protein 1 subunit alpha (TCP1) (Homo sapiens, UniProt P17987); experiment: SPR (Biacore 8K, CM5 chip, immobilized protein); also SILAC AP-MS from HEK293T lysate
T1 construct: C-terminal Flag-His6 tag fused TCP1, expressed in E. coli BL21 (DE3)

[2] = target: T2, T-complex protein 1 subunit alpha (TCP1) (Homo sapiens, UniProt P17987, D88A); experiment: SPR on mutant TCP1
T2 construct: TCP1 mutant D88A

[3] = target: T3, lysophospholipase-like 1 (LYPLAL1) (Homo sapiens, UniProt Q5VWZ2); experiment: SPR (Biacore 8K, CM5 chip, immobilized protein); also SILAC AP-MS from HEK293T lysate
T3 construct: LYPLAL1 in pDEST15, expressed in E. coli BL21 (DE3)
T3 sequence (Q5VWZ2 2-237): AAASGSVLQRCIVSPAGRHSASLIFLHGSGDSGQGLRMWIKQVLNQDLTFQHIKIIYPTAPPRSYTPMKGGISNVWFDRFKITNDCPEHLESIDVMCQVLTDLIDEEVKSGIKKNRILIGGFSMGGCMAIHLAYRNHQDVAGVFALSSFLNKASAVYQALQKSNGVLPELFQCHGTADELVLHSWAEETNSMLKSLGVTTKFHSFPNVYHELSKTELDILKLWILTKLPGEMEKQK

[4] = target: T4, cell cycle and apoptosis regulator protein 2 (CCAR2) (Homo sapiens, UniProt Q8N163); experiment: as above
T4 construct: C-terminal Flag tag fused CCAR2 in pGEX-4T-1 (GST-tagged), expressed in E. coli BL21 (DE3)
T4 sequence (Q8N163 whole entry, the tested form may be a part): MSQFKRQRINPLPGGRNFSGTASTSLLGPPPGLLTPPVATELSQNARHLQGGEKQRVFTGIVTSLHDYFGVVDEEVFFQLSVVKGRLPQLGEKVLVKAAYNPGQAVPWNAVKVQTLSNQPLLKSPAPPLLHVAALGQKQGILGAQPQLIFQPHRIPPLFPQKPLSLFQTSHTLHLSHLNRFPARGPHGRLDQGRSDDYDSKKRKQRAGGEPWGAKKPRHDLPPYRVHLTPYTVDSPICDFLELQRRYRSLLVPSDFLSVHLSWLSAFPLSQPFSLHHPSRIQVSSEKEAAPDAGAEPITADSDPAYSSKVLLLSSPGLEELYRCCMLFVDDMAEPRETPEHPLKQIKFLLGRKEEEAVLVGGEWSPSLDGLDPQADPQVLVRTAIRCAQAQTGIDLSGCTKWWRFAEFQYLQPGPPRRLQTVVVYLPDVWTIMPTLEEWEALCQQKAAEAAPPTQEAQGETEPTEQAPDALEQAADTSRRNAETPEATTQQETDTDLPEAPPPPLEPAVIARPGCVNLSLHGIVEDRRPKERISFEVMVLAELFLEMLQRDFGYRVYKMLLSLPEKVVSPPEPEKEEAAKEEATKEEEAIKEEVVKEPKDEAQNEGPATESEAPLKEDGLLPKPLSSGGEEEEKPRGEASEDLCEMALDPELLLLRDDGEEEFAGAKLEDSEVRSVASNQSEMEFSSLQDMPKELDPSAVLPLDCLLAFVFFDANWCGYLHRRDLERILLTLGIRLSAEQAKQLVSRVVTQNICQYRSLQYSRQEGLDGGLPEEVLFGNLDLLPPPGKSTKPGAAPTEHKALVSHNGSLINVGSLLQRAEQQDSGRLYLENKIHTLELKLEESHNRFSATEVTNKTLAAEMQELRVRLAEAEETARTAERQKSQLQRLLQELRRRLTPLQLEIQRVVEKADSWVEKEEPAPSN

T2 sequence (P17987 whole entry D88A, one chain of several): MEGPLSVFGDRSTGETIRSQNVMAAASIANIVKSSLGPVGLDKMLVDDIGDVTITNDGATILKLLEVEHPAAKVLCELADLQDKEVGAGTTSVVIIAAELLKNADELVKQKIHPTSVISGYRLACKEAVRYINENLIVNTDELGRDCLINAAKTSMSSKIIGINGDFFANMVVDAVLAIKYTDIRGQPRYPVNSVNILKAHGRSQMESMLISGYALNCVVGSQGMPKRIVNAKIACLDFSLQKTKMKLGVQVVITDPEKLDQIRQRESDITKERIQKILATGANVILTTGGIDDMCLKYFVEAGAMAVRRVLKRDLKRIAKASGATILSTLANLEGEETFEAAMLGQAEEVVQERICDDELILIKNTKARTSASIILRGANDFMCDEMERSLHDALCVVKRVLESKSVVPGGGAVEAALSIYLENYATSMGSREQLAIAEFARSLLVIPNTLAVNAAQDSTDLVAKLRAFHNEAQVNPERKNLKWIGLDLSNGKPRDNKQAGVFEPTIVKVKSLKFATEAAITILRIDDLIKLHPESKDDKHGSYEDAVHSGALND
T1 sequence (P17987 whole entry, the tested form may be a part, one chain of several): as the sequence (P17987 whole entry D88A, one chain of several) above, with A88D counted along it

Kd [1]: 50.1 µM
Kd [2]: 494 µM
Kd [3]: 1440 µM
Kd [4]: 441 µM
SMILES: O=C(CCCC[C@@H]1SC[C@@H]2NC(=O)N[C@@H]21)NCCOCCOCCOCCOCCOCc1cn([C@@H](CC(=O)N2CCn3c(nnc3C(F)(F)F)C2)Cc2cc(F)c(F)cc2F)nn1 [biotin-PEG5-sitagliptin]

— paper PMC9827809, “Identification of sitagliptin binding proteins by affinity purification mass spectrometry” (Acta Biochimica et Biophysica Sinica, 2022)
